According to ChEMBL document CHEMBL5331122, “Structure-Activity Relationship Study of Antimicrobial Peptide PE2 Delivered Novel Linear Derivatives with Potential of Eradicating Biofilms and Low Incidence of Drug Resistance” (J Med Chem, 2023):
Activity calls are given as the source filed them. The rule behind the calls is not given here. Where a SMILES comes first, the peptide text is derived from it. Bridges are numbered along the chain shown (N, C = ends). [ ]: non-standard residue; d: D form. The star is where a group is joined. Heptanoyl(6-Me) = CC(C)CCCCC(=O)*; dDab = NCC[C@@H](N)C(=O)O; Dab = NCC[C@H](N)C(=O)O

How the values were obtained:
[1] = system: Escherichia coli; assay: Antibacterial activity against Escherichia coli ATCC 25922 in presence of 10% mouse serum measured for 6 hrs; type: functional, organism-based
[2] = system: Staphylococcus aureus; assay: Antibacterial activity against Staphylococcus aureus ATCC 25923 in presence of 10% mouse serum measured for 6 hrs; type: functional, organism-based
[3] = system: Escherichia coli; assay: Inhibition of biofilm formation in Escherichia coli ATCC 25922 assessed as inhibition of biofilm formation incubated for 24 hrs by crystal violet staining based analysis; type: functional, organism-based
[4] = system: Escherichia coli; assay: Inhibition of biofilm formation in Escherichia coli ATCC 25922 assessed as inhibition of biofilm formation at 1/4 times MIC incubated for 24 hrs by crystal violet staining based analysis; type: functional, organism-based
[5] = system: Escherichia coli; assay: Inhibition of biofilm formation in Escherichia coli ATCC 25922 assessed as inhibition of biofilm formation at 1/2 times MIC incubated for 24 hrs by crystal violet staining based analysis; type: functional, organism-based
[6] = system: Escherichia coli; assay: Inhibition of biofilm formation in Escherichia coli ATCC 25922 assessed as inhibition of biofilm formation at 1 to 2 times MIC incubated for 24 hrs by crystal violet staining based analysis; type: functional, organism-based
[7] = system: Staphylococcus aureus; assay: Inhibition of biofilm formation in Staphylococcus aureus ATCC 25923 assessed as inhibition of biofilm formation at 1/4 times MIC incubated for 24 hrs by crystal violet staining based analysis; type: functional, organism-based
[8] = system: Staphylococcus aureus; assay: Inhibition of biofilm formation in Staphylococcus aureus ATCC 25923 assessed as inhibition of biofilm formation at 1/2 times MIC incubated for 24 hrs by crystal violet staining based analysis; type: functional, organism-based
[9] = system: Staphylococcus aureus; assay: Inhibition of biofilm formation in Staphylococcus aureus ATCC 25923 assessed as inhibition of biofilm formation at 1 times MIC incubated for 24 hrs by crystal violet staining based analysis; type: functional, organism-based
[10] = system: Staphylococcus aureus; assay: Antibiofilm activity against Staphylococcus aureus ATCC 25923 assessed as biofilm eradication at 1 times MIC incubated for 24 hrs; type: functional, organism-based
[11] = system: Staphylococcus aureus; assay: Antibiofilm activity against Staphylococcus aureus ATCC 25923 assessed as biofilm eradication at 4 times MIC incubated for 24 hrs; type: functional, organism-based
[12] = system: Staphylococcus aureus; assay: Antibiofilm activity against Staphylococcus aureus ATCC 25923 assessed as biofilm eradication at 8 times MIC incubated for 24 hrs; type: functional, organism-based
[13] = system: Staphylococcus aureus; assay: Induction of drug resistance against Staphylococcus aureus ATCC 25923 measured upto 15 passages by sequential passaging method; type: functional
[14] = system: Escherichia coli; assay: Additive antibacterial activity against Escherichia coli ATCC 25922 assessed as bacterial growth inhibition incubated for 18 hrs in presence of gentamycin by checkerboard assay; type: functional, organism-based
[15] = system: Escherichia coli; assay: Additive antibacterial activity against Escherichia coli ATCC 25922 assessed as bacterial growth inhibition incubated for 18 hrs in presence of rifampicin by checkerboard assay; type: functional, organism-based
[16] = system: Staphylococcus aureus; assay: Additive antibacterial activity against Staphylococcus aureus ATCC 25923 assessed as bacterial growth inhibition incubated for 18 hrs in presence of gentamycin by checkerboard assay; type: functional, organism-based
[17] = system: Staphylococcus aureus; assay: Additive antibacterial activity against Staphylococcus aureus ATCC 25923 assessed as bacterial growth inhibition incubated for 18 hrs in presence of rifampicin by checkerboard assay; type: functional, organism-based
[18] = system: Escherichia coli; assay: Synergistic antibacterial activity against gentamycin-resistant Escherichia coli ATCC 25922 incubated for 18 hrs by checkerboard assay; type: functional, organism-based
[19] = system: Escherichia coli; assay: Synergistic antibacterial activity against rifampicin-resistant Escherichia coli ATCC 25922 incubated for 18 hrs by checkerboard assay; type: functional, organism-based
[20] = system: Staphylococcus aureus; assay: Synergistic antibacterial activity against Staphylococcus aureus ATCC 25923 incubated for 18 hrs in presence of gentamycin by checkerboard assay; type: functional, organism-based
[21] = system: Staphylococcus aureus; assay: Synergistic antibacterial activity against Staphylococcus aureus ATCC 25923 incubated for 18 hrs in presence of rifampicin by checkerboard assay; type: functional, organism-based
[22] = system: Escherichia coli; assay: Bactericidal activity against Escherichia coli ATCC 25922 assessed as inhibition of bacterial growth incubated upto 360 mins by time-kill assay; type: functional, organism-based
[23] = system: Escherichia coli; assay: Bactericidal activity against Escherichia coli ATCC 25922 assessed as inhibition of bacterial growth at 0.5 to 2 times MIC by time-kill assay; type: functional, organism-based; conditions: time <= 360.0 min, TDE = time-dependent effect
[24] = system: Escherichia coli; assay: Bactericidal activity against Escherichia coli ATCC 25922 assessed as inhibition of bacterial growth at 0.5 to 2 times MIC measured at 90 mins by time-kill assay; type: functional, organism-based
[25] = system: Escherichia coli; assay: Bactericidal activity against Escherichia coli ATCC 25922 assessed as inhibition of bacterial growth at 2 times MIC measured upto 360 mins by time-kill assay; type: functional, organism-based
[26] = system: Staphylococcus aureus; assay: Bactericidal activity against Staphylococcus aureus ATCC 25923 assessed as inhibition of bacterial growth at 0.5 to 2 times MIC by time-kill assay; type: functional, organism-based; conditions: time <= 360.0 min, TDE = time-dependent effect
[27] = system: Staphylococcus aureus; assay: Bactericidal activity against Staphylococcus aureus ATCC 25923 assessed as inhibition of bacterial growth incubated upto 360 mins by time-kill assay; type: functional, organism-based
[28] = system: Escherichia coli; assay: Bactericidal activity against Escherichia coli ATCC 25922 assessed as inhibition of bacterial growth at 1/2 times MIC measured at 180 mins by time-kill assay; type: functional, organism-based
[29] = system: Escherichia coli; assay: Bactericidal activity against Escherichia coli ATCC 25922 assessed as inhibition of bacterial growth at 1 times MIC measured at 120 mins by time-kill assay; type: functional, organism-based
[30] = system: Staphylococcus aureus; assay: Bactericidal activity against Staphylococcus aureus ATCC 25923 assessed as inhibition of bacterial growth at 1/2 times MIC measured upto 360 mins by time-kill assay; type: functional, organism-based
[31] = system: Staphylococcus aureus; assay: Bactericidal activity against Staphylococcus aureus ATCC 25923 assessed as inhibition of bacterial growth at 1 times MIC measured upto 360 mins by time-kill assay; type: functional, organism-based
[32] = system: Staphylococcus aureus; assay: Bactericidal activity against Staphylococcus aureus ATCC 25923 assessed as inhibition of bacterial growth at 2 times MIC measured upto 360 mins by time-kill assay; type: functional, organism-based
[33] = system: Staphylococcus aureus; assay: Bactericidal activity against Staphylococcus aureus ATCC 25923 assessed as inhibition of bacterial growth at 2 times MIC measured at 120 mins by time-kill assay; type: functional, organism-based
[34] = system: Escherichia coli; assay: Antimicrobial activity against Escherichia coli ATCC 25922 assessed as reduction in microbial growth measured for 18 hrs in presence of […] microg/ml LPS; type: functional, organism-based
[35] = system: Escherichia coli; assay: Antimicrobial activity against Escherichia coli ATCC 25922 assessed as reduction in microbial growth measured for 18 hrs in presence of 512 microg/ml LPS; type: functional, organism-based
[36] = system: Cell membrane; assay: Induction of outer membrane permeabilization in Escherichia coli ATCC 25922 assessed as increase in fluorescence intensity at 1 to 4 times MIC measured for 12 hrs by NPN uptake assay; type: subcellular
[37] = system: Cell membrane; assay: Induction of outer membrane permeabilization in Escherichia coli ATCC 25922 assessed as increase in fluorescence intensity at 2 times MIC measured for 12 hrs by NPN uptake assay; type: subcellular
[38] = system: Cell membrane; assay: Induction of outer membrane permeabilization in Escherichia coli ATCC 25922 assessed as increase in fluorescence intensity at 4 times MIC measured for 12 hrs by NPN uptake assay; type: subcellular
[39] = system: Cell membrane; assay: Induction of inner membrane permeabilization in Escherichia coli ML-35 ATCC 43837 assessed as increase in fluorescence intensity at 1 to 4 times MIC incubated upto 150 mins by ONPG staining based analysis; type: subcellular
[40] = system: Cell membrane; assay: Induction of cell membrane damage in Escherichia coli ATCC 25922 at 2 times MIC after 0.5 to 2 hrs by propidium iodide staining based flow cytometer assay; type: subcellular; conditions: time 0.5-2 hrs
[41] = system: Cell membrane; assay: Induction of cell membrane damage in Staphylococcus aureus ATCC 25923 at 2 times MIC after 0.5 to 2 hrs by propidium iodide staining based flow cytometer assay; type: subcellular; conditions: time 0.5-2 hrs
[42] = system: Cell membrane; assay: Induction of cell membrane damage in Staphylococcus aureus ATCC 25923 at 2 times MIC measured at 30 mins by propidium iodide staining based flow cytometer assay; type: subcellular
[43] = system: Escherichia coli; assay: Induction of membrane morphological changes in Escherichia coli ATCC 25922 at 4 times MIC measured at 0.5 to 2 hrs by SEM analysis; type: functional, organism-based; conditions: time 0.5-2 hrs
[44] = system: Staphylococcus aureus; assay: Induction of membrane morphological changes in Staphylococcus aureus ATCC 25923 at 4 times MIC measured at 0.5 to 2 hrs by SEM analysis; type: functional, organism-based; conditions: time 0.5-2 hrs
[45] = system: Staphylococcus aureus; assay: Induction of membrane morphological changes in Staphylococcus aureus ATCC 25923 assessed as appearance of broken bacterial cells at 4 times MIC measured at 0.5 to 2 hrs by SEM analysis; type: functional, organism-based; conditions: time 0.5-2 hrs
[46] = system: Staphylococcus aureus; assay: Induction of membrane morphological changes in Staphylococcus aureus ATCC 25923 assessed as appearance of blistered bacterial cells at 4 times MIC measured at 0.5 to 2 hrs by SEM analysis; type: functional, organism-based; conditions: time 0.5-2 hrs
[47] = system: Staphylococcus aureus; assay: Induction of membrane morphological changes in Staphylococcus aureus ATCC 25923 assessed as appearance of adherent bacterial cells at 4 times MIC measured at 0.5 to 2 hrs by SEM analysis; type: functional, organism-based; conditions: time 0.5-2 hrs
[48] = system: Klebsiella pneumoniae; assay: Antibacterial activity against Klebsiella pneumoniae ATCC 700603 infected in BALB/c mouse pneumonia model at 5 to 10 mg/kg, ip measured at 4 to 12 hrs; type: functional, organism-based; conditions: dose 5-10 mg/kg, time 4-12 hrs
[49] = system: Klebsiella pneumoniae; assay: Antibacterial activity against Klebsiella pneumoniae ATCC 700603 infected in BALB/c mouse pneumonia model assessed as reduction in lung bacterial load at 5 to 10 mg/kg, ip measured at 4 to 12 hrs; type: functional, organism-based; conditions: dose 5-10 mg/kg, time 4-12 hrs

## CC(C)CCCCC(=O)N[C@@H](CCN)C(=O)N[C@H](C(=O)N[C@@H](CCN)C(=O)N[C@H]1CCNC(=O)[C@H]([C@@H](C)O)NC(=O)[C@H](CCN)NC(=O)[C@H](CCN)NC(=O)[C@H](CC(C)C)NC(=O)[C@@H](Cc2ccccc2)NC(=O)[C@@H](CCN)NC1=O)[C@@H](C)O ({Heptanoyl(6-Me)}-[Dab]T[Dab][Dab][dDab][dF]L[Dab][Dab]T; lactam 4-C)
[1]
  Activity: Active
[2]
  Activity: Active
[3]
  inhibition: Dose-Dependent Effect
[4]
  inhibition: Active
[5]
  inhibition: inactive
[6]
  inhibition: Active
[7]
  inhibition: Active
[8]
  inhibition: Active
[9]
  inhibition: inactive
[10]
  Activity: inactive
[11]
  Activity: Active
[12]
  Activity: Active
[13]
  Activity: Active
[14]
  Activity: Active
[15]
  Activity: Active
[16]
  Activity: Active
[17]
  Activity: Active
[18]
  Activity: Active
[19]
  Activity: Active
[20]
  Activity: Active
[21]
  Activity: Active
[22]
  Activity: Dose-Dependent Effect
[23]
  Activity: Tde
[24]
  Activity: Active
[25]
  Activity: Active
[26]
  Activity: Tde
[27]
  Activity: Dose-Dependent Effect
[28]
  Activity: Active
[29]
  Activity: Active
[30]
  Activity: inactive
[31]
  Activity: inactive
[32]
  Activity: Active
[33]
  Activity: Active
[34]
  Activity: Active
[35]
  Activity: inactive
[36]
  Activity: Active
[37]
  Activity: Active
[38]
  Activity: Active
[39]
  Activity: Active
[40]
  Activity: Active
[41]
  Activity: Active
[42]
  Activity: inactive
[43]
  Activity: Active
[44]
  Activity: Active
[45]
  Activity: Active
[46]
  Activity: Active
[47]
  Activity: Active
[48]
  Activity: Active
[49]
  Activity: Active
